Results reported in paper PMC7587962, “Evaluation of Cytotoxicity and α-Glucosidase Inhibitory Activity of Amide and Polyamino-Derivatives of Lupane Triterpenoids” (Molecules, 2020).

Tests used:
[1] = system: 60 human tumor cell lines; details: single dose 10 µM
UACC-257 = experiment: NCI-60 SRB screen: melanoma UACC-257; assay type: cell-based, human; details: UACC-257
RXF 393 = experiment: NCI-60 SRB screen: renal cancer RXF 393; assay type: cell-based, human; details: RXF 393
UO-31 = experiment: NCI-60 SRB screen: renal cancer UO-31; assay type: cell-based, human; details: UO-31
SF-295 = experiment: NCI-60 SRB screen: CNS cancer SF-295; assay type: cell-based, human; details: SF-295
Renal Cancer subpanel = experiment: NCI-60 screen, subpanel Renal Cancer
HL-60(TB) = experiment: NCI-60 SRB screen: leukemia HL-60(TB); assay type: cell-based; details: Homo sapiens, 48 h, HL-60(TB)
CNS cancer subpanel = experiment: NCI-60 screen, subpanel CNS cancer
IGROV1 = experiment: NCI-60 SRB screen: ovarian cancer IGROV1; assay type: cell-based, human; details: IGROV1
UACC-62 = experiment: NCI-60 SRB screen: melanoma UACC-62; assay type: cell-based, human; details: UACC-62
SK-MEL-2 = experiment: NCI-60 SRB screen: melanoma SK-MEL-2; assay type: cell-based, human; details: SK-MEL-2
SF-268 = experiment: NCI-60 SRB screen: CNS cancer SF-268; assay type: cell-based, human; details: SF-268
M14 = experiment: NCI-60 SRB screen: melanoma M14; assay type: cell-based, human; details: M14
Colon Cancer subpanel = experiment: NCI-60 screen, subpanel Colon Cancer
A549/ATCC = experiment: NCI-60 SRB screen: non-small cell lung cancer A549/ATCC; assay type: cell-based, human; details: A549/ATCC
SR = experiment: NCI-60 SRB screen: leukemia SR; assay type: cell-based; details: Homo sapiens, 48 h
COLO 205 = experiment: NCI-60 SRB screen: colon cancer COLO 205; assay type: cell-based, human; details: COLO 205
SF-539 = experiment: NCI-60 SRB screen: CNS cancer SF-539; assay type: cell-based, human; details: SF-539
SK-OV-3 = experiment: NCI-60 SRB screen: ovarian cancer SK-OV-3; assay type: cell-based, human; details: SK-OV-3
BT-549 = experiment: NCI-60 SRB screen: breast cancer BT-549; assay type: cell-based, human; details: BT-549
ACHN = experiment: NCI-60 SRB screen: renal cancer ACHN; assay type: cell-based, human
NCI-H322M = experiment: NCI-60 SRB screen: non-small cell lung cancer NCI-H322M; assay type: cell-based, human
HS 578T = experiment: NCI-60 SRB screen: breast cancer HS 578T; assay type: cell-based, human; details: HS 578T
NCI-H460 = experiment: NCI-60 SRB screen: non-small cell lung cancer NCI-H460; assay type: cell-based; details: Homo sapiens, 48 h, NCI-H460
MCF7 = experiment: NCI-60 SRB screen: breast cancer MCF7; assay type: cell-based; details: Homo sapiens, 48 h, MCF7
HT29 = experiment: NCI-60 SRB screen: colon cancer HT29; assay type: cell-based; details: Homo sapiens, HT29
MALME-3M = experiment: NCI-60 SRB screen: melanoma MALME-3M; assay type: cell-based, human; details: MALME-3M
LOX IMVI = experiment: NCI-60 SRB screen: melanoma LOX IMVI; assay type: cell-based, human
MDA-MB-468 = experiment: NCI-60 SRB screen: breast cancer MDA-MB-468; assay type: cell-based, human
KM12 = experiment: NCI-60 SRB screen: colon cancer KM12; assay type: cell-based, human; details: KM12
NSCL cancer subpanel = experiment: NCI-60 screen, subpanel NSCL cancer
Breast cancer subpanel = experiment: NCI-60 screen, subpanel Breast cancer
CAKI-1 = experiment: NCI-60 SRB screen: renal cancer CAKI-1; assay type: cell-based, human; details: CAKI-1
SNB-19 = experiment: NCI-60 SRB screen: CNS cancer SNB-19; assay type: cell-based, human; details: SNB-19
OVCAR-8 = experiment: NCI-60 SRB screen: ovarian cancer OVCAR-8; assay type: cell-based, human; details: OVCAR-8
TK-10 = experiment: NCI-60 SRB screen: renal cancer TK-10; assay type: cell-based, human; details: TK-10
HCT-15 = experiment: NCI-60 SRB screen: colon cancer HCT-15; assay type: cell-based, human; details: HCT-15
[2] = Homo sapiens, five concentrations, 48 h, SRB, read-out: GI50
[3] = single dose 10 µM, read-out: Percentage Cell Growth
[4] = five concentrations, SRB, read-out: GI50

## C=C(C)[C@@H]1CC[C@]2(C(=O)NCCNCCNCCN)CC[C@]3(C)[C@H](CC[C@@H]4[C@@]5(C)CC[C@H](O)C(C)(C)[C@@H]5CC[C@]43C)[C@@H]12 [Compound 6]
[1]; cell lines with negative growth
  cancer cell lethality, range of percentage growth: −4.72% to −100%
[1]; number of cell lines
  cases of cancer cell lethality: 57
UACC-257; [2]
  GI50: 15.1 µM
UACC-257; single dose 10 µM
  Percentage Cell Growth: −39.58%
RXF 393; [2]
  GI50: 13.2 µM
RXF 393; single dose 10 µM
  Percentage Cell Growth: −82.88%
UO-31; [2]
  GI50: 11.7 µM
UO-31; single dose 10 µM
  Percentage Cell Growth: −100.00%
SF-295; [2]
  GI50: 13.8 µM
SF-295; single dose 10 µM
  Percentage Cell Growth: −84.72%
Renal Cancer subpanel
  MID b, average sensitivity of all cell line of particular subpanel: 13.02 µM
  Selectivity, ratio MID a: MID b: 0.93
HL-60(TB); [3]
  activity at 10 µM: -24%
HL-60(TB); [4]
  GI50: 7.33 µM
CNS cancer subpanel
  MID b, average sensitivity of all cell line of particular subpanel: 12.52 µM
  Selectivity, ratio MID a: MID b: 0.97
IGROV1; Homo sapiens, IGROV-1, five concentrations, 48 h, SRB, read-out: GI50
  GI50: 16.1 µM
IGROV1; single dose 10 µM
  Percentage Cell Growth: −81.43%
UACC-62; [2]
  GI50: 9.29 µM
UACC-62; single dose 10 µM
  Percentage Cell Growth: −100.00%
SK-MEL-2; [2]
  GI50: 16.8 µM
SK-MEL-2; single dose 10 µM
  Percentage Cell Growth: −65.39%
SF-268; [2]
  GI50: 13.5 µM
SF-268; single dose 10 µM
  Percentage Cell Growth: −30.99%
M14; [2]
  GI50: 11 µM
M14; single dose 10 µM
  Percentage Cell Growth: −30.98%
Colon Cancer subpanel
  MID b, average sensitivity of all cell line of particular subpanel: 11.72 µM
  Selectivity, ratio MID a: MID b: 1.04
A549/ATCC; single dose 10 µM
  Percentage Cell Growth: −64.63%
A549/ATCC; [2]
  GI50: 4.97 µM
SR; [3]
  activity at 10 µM: -4.72%
SR; [4]
  GI50: 6.76 µM
COLO 205; single dose 10 µM
  Percentage Cell Growth: −19.47%
COLO 205; [2]
  GI50: 15.9 µM
SF-539; [2]
  GI50: 11.1 µM
SF-539; single dose 10 µM
  Percentage Cell Growth: −100.00%
SK-OV-3; [2]
  GI50: 17.5 µM
SK-OV-3; single dose 10 µM
  Percentage Cell Growth: −14.17%
BT-549; single dose 10 µM
  Percentage Cell Growth: −51.94%
BT-549; [2]
  GI50: 15 µM
ACHN; [2]
  GI50: 12 µM
ACHN; single dose 10 µM
  Percentage Cell Growth: −100.00%
NCI-H322M; [2]
  GI50: 15.1 µM
NCI-H322M; single dose 10 µM
  Percentage Cell Growth: −83.84%
HS 578T; single dose 10 µM
  Percentage Cell Growth: −23.26%
HS 578T; [2]
  GI50: 20.1 µM
NCI-H460; [3]
  activity at 10 µM: -100%
NCI-H460; [4]
  GI50: 14.7 µM
MCF7; [3]
  activity at 10 µM: -60.5%
MCF7; [4]
  GI50: 13.2 µM
HT29; HT-29, 48 h, single dose 10 µM, read-out: Percentage Cell Growth
  activity at 10 µM: -39.6%
HT29; HT-29, five concentrations, 48 h, SRB, read-out: GI50
  GI50: 14.6 µM
MALME-3M; [2]
  GI50: 14.6 µM
MALME-3M; single dose 10 µM
  Percentage Cell Growth: −100.00%
LOX IMVI; [2]
  GI50: 14.9 µM
LOX IMVI; single dose 10 µM
  Percentage Cell Growth: −41.03%
MDA-MB-468; [2]
  GI50: 8.88 µM
MDA-MB-468; single dose 10 µM
  Percentage Cell Growth: −48.60%
KM12; [2]
  GI50: 6.81 µM
KM12; single dose 10 µM
  Percentage Cell Growth: −52.23%
NSCL cancer subpanel
  MID b, average sensitivity of all cell line of particular subpanel: 11.88 µM
  Selectivity, ratio MID a: MID b: 1.02
Breast cancer subpanel
  MID b, average sensitivity of all cell line of particular subpanel: 13.86 µM
  Selectivity, ratio MID a: MID b: 0.88
CAKI-1; single dose 10 µM
  Percentage Cell Growth: −93.59%
CAKI-1; [2]
  GI50: 5.92 µM
SNB-19; [2]
  GI50: 12.9 µM
SNB-19; single dose 10 µM
  Percentage Cell Growth: −74.52%
OVCAR-8; [2]
  GI50: 18.8 µM
OVCAR-8; single dose 10 µM
  Percentage Cell Growth: −12.90%
TK-10; [2]
  GI50: 15.8 µM
TK-10; single dose 10 µM
  Percentage Cell Growth: −67.30%
HCT-15; single dose 10 µM
  Percentage Cell Growth: −24.81%
HCT-15; [2]
  GI50: 11.5 µM
